Our source for the IC50 values is patent US10221177B2 (HYDRA BIOSCIENCES, INC., priority 2014, dated 2019).

This test concerns the target human TRPA1 (Homo sapiens (Human), UniProt O75762). The experiment in a line: In vitro inhibition of human TRPA1, whole cell patch configuration. The settings on record: current activation 10 μM AITC, tested concentrations 320 pM to 3.2 μM, read-out: hTRPA1 IC50. The test is classed as cell-based. Here is the method:
All currents were recorded in whole-cell configuration using EPC-9 and EPC-10 amplifiers and Patchmaster software (HEKA) or similar. […] The standard bath solution contained 150 mM NaCl, 10 mM HEPES, 10 mM glucose, 4.5 mM KCl, 1 mM EGTA, 3 mM MgCl2, with pH adjusted to 7.4 with NaOH. In some instances, 2 mM CaCl2 was added in place of EGTA and the concentration of MgCl2 was reduced to 1 mM.
Data were collected either by continuous recordings at −60 mV or by applying voltage ramps from a holding potential of −40 mV every 4 s. Continuous recordings were collected at 400 Hz and digitally filtered off-line at 10 Hz for presentation. Voltage ramps were applied from −100 mV or −80 mV to +100 mV or +80 mV over the course of 400 ms, and data were collected at 10 kHz and filtered at 2.9 kHz. Inward and outward currents were analyzed from the ramps at −80 and 80 mV, respectively. Liquid junction potential correction was not used.
Solutions were switched using a gravity-fed continuous focal perfusion system. To achieve rapid temperature changes, two temperature control, and perfusion systems were employed simultaneously. […] Temperatures were confirmed using a thermistor (Warner Instruments, TA-29), with temperatures at the recorded cell estimated to be within +/−2° C. of those reported.
The antagonist effects of compounds of Formula (I) against human TRPA1 (“hTRPA1”) in a whole cell patch configuration were evaluated using the in vitro assay described above.

human TRPA1, sequence (O75762 whole entry): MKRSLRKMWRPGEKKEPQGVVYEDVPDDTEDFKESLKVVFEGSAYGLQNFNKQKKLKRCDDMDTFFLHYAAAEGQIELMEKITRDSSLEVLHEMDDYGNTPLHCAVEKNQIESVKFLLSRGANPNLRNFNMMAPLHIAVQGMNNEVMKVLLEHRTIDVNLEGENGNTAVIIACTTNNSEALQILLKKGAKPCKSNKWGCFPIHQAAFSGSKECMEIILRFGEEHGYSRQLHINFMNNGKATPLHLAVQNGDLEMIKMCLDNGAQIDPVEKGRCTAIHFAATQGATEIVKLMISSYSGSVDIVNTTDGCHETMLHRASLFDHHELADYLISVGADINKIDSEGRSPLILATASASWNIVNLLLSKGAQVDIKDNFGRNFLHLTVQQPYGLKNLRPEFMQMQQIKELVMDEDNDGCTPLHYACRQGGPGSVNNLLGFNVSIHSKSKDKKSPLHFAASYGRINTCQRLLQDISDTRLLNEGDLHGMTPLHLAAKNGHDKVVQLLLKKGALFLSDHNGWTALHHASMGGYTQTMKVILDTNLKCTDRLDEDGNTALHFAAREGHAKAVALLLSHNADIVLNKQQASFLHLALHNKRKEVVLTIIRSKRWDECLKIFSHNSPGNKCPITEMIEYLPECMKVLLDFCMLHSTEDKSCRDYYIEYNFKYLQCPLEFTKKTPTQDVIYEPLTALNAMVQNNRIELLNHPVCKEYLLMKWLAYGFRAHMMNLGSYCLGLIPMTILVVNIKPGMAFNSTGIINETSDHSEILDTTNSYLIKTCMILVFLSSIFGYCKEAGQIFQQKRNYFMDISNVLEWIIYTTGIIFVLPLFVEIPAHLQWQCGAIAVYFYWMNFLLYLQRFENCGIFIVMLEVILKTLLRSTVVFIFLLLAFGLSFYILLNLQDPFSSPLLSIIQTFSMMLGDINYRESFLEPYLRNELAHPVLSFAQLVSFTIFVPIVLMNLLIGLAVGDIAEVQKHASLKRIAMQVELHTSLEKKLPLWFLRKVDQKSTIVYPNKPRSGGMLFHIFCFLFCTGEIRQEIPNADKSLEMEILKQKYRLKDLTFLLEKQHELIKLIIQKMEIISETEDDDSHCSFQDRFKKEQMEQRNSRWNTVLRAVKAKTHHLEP

What is called IC50 is the point on the concentration scale where inhibition reaches its midpoint. Consider `COCC(=O)Cn1c(=O)c2c(ncn2[C@@H](C)C(=O)Nc2cncc(-c3ccc(N4CC5CC5C4)nc3)n2)n(C)c1=O` (stereo partly drawn) [Compound 271, (2S)—N-(6-(6-(3-azabicyclo[3.1.0]hexan-3-yl)pyridin-3-yl)pyrazin-2-yl)-2-(1-(3-methoxy-2-oxopropyl)-3-methyl-2,6-dioxo-2,3-dihydro-1H-purin-7(6H)-yl)propanamide], for which the IC50 turned out to be 5 nM.
With `Cc1cc(Cn2c(=O)c3c(ncn3[C@@H](C)C(=O)Nc3cccc(-c4cnc(C)c(C(F)(F)F)c4)n3)n(C)c2=O)no1` [Compound 126, (S)-2-(3-methyl-1-((5-methylisoxazol-3-yl)methyl)-2,6-dioxo-2,3-dihydro-1H-purin-7(6H)-yl)-N-(6′-methyl-5′-(trifluoromethyl)-[2,3′-bipyridin]-6-yl)propanamide], the IC50 was found to be 1 nM.
In the case of `Cc1cc(Cn2c(=O)c3c(ncn3[C@@H](C)C(=O)Nc3cccc(-c4noc(C(F)(F)F)n4)n3)n(C)c2=O)no1` [Compound 78], the IC50 was determined as 86 nM.
Next, `CCC(=O)Cn1c(=O)c2c(ncn2[C@@H](C)C(=O)Nc2cccc(-c3cnc(N4CC5CC5C4)nc3)n2)n(C)c1=O` (stereo partly drawn) [Compound 147, (2S)—N-(6-(2-(3-azabicyclo[3.1.0]hexan-3-yl)pyrimidin-5-yl)pyridin-2-yl)-2-(3-methyl-2,6-dioxo-1-(2-oxobutyl)-2,3-dihydro-1H-purin-7(6H)-yl)propanamide]: 6 nM; `CC(=O)Cn1c(=O)c2c(ncn2[C@@H](C)C(=O)Nc2cncc(-c3ccc(N4CC5C(C4)C5(F)F)nc3)n2)n(C)c1=O` (stereo partly drawn) [Compound 76, (2S)—N-(6-(6-(6,6-difluoro-3-azabicyclo[3.1.0]hexan-3-yl)pyridin-3-yl)pyrazin-2-yl)-2-(3-methyl-2,6-dioxo-1-(2-oxopropyl)-2,3-dihydro-1H-purin-7(6H)-yl)propanamide]: 10 nM; `COCC(=O)Cn1c(=O)c2c(ncn2CC(=O)Nc2csc(-c3cnc(C(F)(F)F)c(C)c3)n2)n(C)c1=O` [Compound 255, 2-(1-(3-methoxy-2-oxopropyl)-3-methyl-2,6-dioxo-2,3-dihydro-1H-purin-7(6H)-yl)-N-(2-(5-methyl-6-(trifluoromethyl)pyridin-3-yl)thiazol-4-yl)acetamide]: 13 nM.
Next, `CC(=O)Cn1c(=O)c2c(ncn2[C@@H](C)C(=O)Nc2cccc(-c3ccc(N4CC5CC5C4)nc3)n2)n(C)c1=O` (stereo partly drawn) [Compound 44, (2S)—N-(6′-(3-azabicyclo[3.1.0]hexan-3-yl)-2,3′-bipyridin-6-yl)-2-(3-methyl-2,6-dioxo-1-(2-oxopropyl)-2,3-dihydro-1H-purin-7(6H)-yl)propanamide]: 14 nM; `CC(=O)Cn1c(=O)c2c(ncn2[C@@H](C)C(=O)Nc2cncc(-c3cnc(N4CC5CC5C4)nc3)n2)n(C)c1=O` (stereo partly drawn) [Compound 152, (2S)—N-(6-(2-(3-azabicyclo[3.1.0]hexan-3-yl)pyrimidin-5-yl)pyrazin-2-yl)-2-(3-methyl-2,6-dioxo-1-(2-oxopropyl)-2,3-dihydro-1H-purin-7(6H)-yl)propanamide]: 7 nM; `CC(=O)Cn1c(=O)c2c(ncn2CC(=O)Nc2cccc(-c3cnc(C(F)(F)F)nc3)n2)n(C)c1=O` [Compound 185, 2-(3-methyl-2,6-dioxo-1-(2-oxopropyl)-2,3-dihydro-1H-purin-7(6H)-yl)-N-(6-(2-(trifluoromethyl)pyrimidin-5-yl)pyridin-2-yl)acetamide]: 45 nM.
For `C[C@@H](C(=O)Nc1cncc(-c2ccc(N3CC4C(C3)C4(F)F)nc2)n1)n1cnc2c1c(=O)n(CC#N)c(=O)n2C` (some centres unmarked) [Compound 77] the value was 2 nM.
Turning to `CC(=O)Cn1c(=O)c2c(ncn2[C@@H](C)C(=O)Nc2csc(-c3ccc(N4CC5CC5C4)nc3)n2)n(C)c1=O` (stereo partly drawn) [Compound 63, (2S)—N-(2-(6-(3-azabicyclo[3.1.0]hexan-3-yl)pyridin-3-yl)thiazol-4-yl)-2-(3-methyl-2,6-dioxo-1-(2-oxopropyl)-2,3-dihydro-1H-purin-7(6H)-yl)propanamide], the IC50 turned out to be 2 nM.
Consider `C[C@@H](C(=O)Nc1cncc(-c2ccc(C(F)(F)F)nc2)n1)n1cnc2c1c(=O)n(Cc1ccon1)c(=O)n2C` [Compound 119, (S)-2-(1-(isoxazol-3-ylmethyl)-3-methyl-2,6-dioxo-2,3-dihydro-1H-purin-7(6H)-yl)-N-(6-(6-(trifluoromethyl)pyridin-3-yl)pyrazin-2-yl)propanamide], for which the IC50 was 28 nM.
Next, `COCC(=O)Cn1c(=O)c2c(ncn2[C@@H](C)C(=O)Nc2cccc(-c3cnc(N4CC5C(C4)C5(F)F)cn3)n2)n(C)c1=O` (some centres unmarked) [Compound 272]: 7 nM.
For `Cc1cc(Cn2c(=O)c3c(ncn3[C@@H](C)C(=O)Nc3cncc(-c4cnc(C)c(Cl)c4)n3)n(C)c2=O)no1` [Compound 139, (S)—N-(6-(5-chloro-6-methylpyridin-3-yl)pyrazin-2-yl)-2-(3-methyl-1-((5-methylisoxazol-3-yl)methyl)-2,6-dioxo-2,3-dihydro-1H-purin-7(6H)-yl)propanamide] the value was 11 nM; for `CCC(=O)Cn1c(=O)c2c(ncn2[C@@H](C)C(=O)Nc2cncc(-c3cnc(N4CC5CC5C4)nc3)n2)n(C)c1=O` (stereo partly drawn) [Compound 13, (2S)—N-(6-(2-(3-azabicyclo[3.1.0]hexan-3-yl)pyrimidin-5-yl)pyrazin-2-yl)-2-(3-methyl-2,6-dioxo-1-(2-oxobutyl)-2,3-dihydro-1H-purin-7(6H)-yl)propanamide], 8 nM.
With `CC(=O)Cn1c(=O)c2c(ncn2CC(=O)Nc2cncc(-c3cnc(C(F)(F)F)c(C)c3)n2)n(C)c1=O` [Compound 232, 2-(3-methyl-2,6-dioxo-1-(2-oxopropyl)-2,3-dihydro-1H-purin-7(6H)-yl)-N-(6-(5-methyl-6-(trifluoromethyl)pyridin-3-yl)pyrazin-2-yl)acetamide], the IC50 stood at 56 nM.
Next, `CCC(=O)Cn1c(=O)c2c(ncn2C(C)C(=O)Nc2ccnc(-c3cnc(N4CC5CC5C4)nc3)n2)n(C)c1=O` (centres unmarked) [Compound 17, N-(2′-(3-azabicyclo[3.1.0]hexan-3-yl)-2,5′-bipyrimidin-4-yl)-2-(3-methyl-2,6-dioxo-1-(2-oxobutyl)-2,3-dihydro-1H-purin-7(6H)-yl)propanamide]: 8 nM; `Cc1cc(Cn2c(=O)c3c(ncn3[C@@H](C)C(=O)Nc3cccc(-c4cncc(C(F)(F)F)c4)n3)n(C)c2=O)no1` [Compound 156, (S)-2-(3-methyl-1-((5-methylisoxazol-3-yl)methyl)-2,6-dioxo-2,3-dihydro-1H-purin-7(6H)-yl)-N-(5′-(trifluoromethyl)-2,3′-bipyridin-6-yl)propanamide]: 3 nM; `Cc1nc(Cn2c(=O)c3c(ncn3[C@@H](C)C(=O)Nc3cccc(-c4cnc(C)c(C(F)(F)F)c4)n3)n(C)c2=O)no1` [Compound 151, (S)-2-(3-methyl-1-((5-methyl-1,2,4-oxadiazol-3-yl)methyl)-2,6-dioxo-2,3-dihydro-1H-purin-7(6H)-yl)-N-(6′-methyl-5′-(trifluoromethyl)-2,3′-bipyridin-6-yl)propanamide]: 16 nM.
On to `CC(C(=O)Nc1ccnc(-c2cnc(N3CC4CC4C3)nc2)n1)n1cnc2c1c(=O)n(CC#N)c(=O)n2C` (centres unmarked) [Compound 24, N-(2′-(3-azabicyclo[3.1.0]hexan-3-yl)-2,5′-bipyrimidin-4-yl)-2-(1-(cyanomethyl)-3-methyl-2,6-dioxo-2,3-dihydro-1H-purin-7(6H)-yl)propanamide], for which the IC50 came to 10 nM.
